Reference: patent US11815435B2, “Beta glucan immunopharmacodynamics” (HiberCell, Inc., priority 2017, dated 2023)

Tests used:
[1] = system: circulating immune complexes (CIC); assay: Circulating immune complex (CIC) formation in serum by ELISA after IV PGG; format: in vivo, human; conditions: single dose PGG IV, at EOI
Method: (§1) IPD changes induced by yeast soluble β-glucan were evaluated in a Phase I healthy donor trial, which included three cohorts of 12 healthy human volunteers aged 18-65 years. In Cohort 1, subjects were administered a single dose of 4 mg/kg yeast soluble β-glucan by IV infusion over 2-3 hours. In Cohort 2, subjects were administered 4 mg/kg PGG by IV infusion over 2-3 hours once weekly for 3 weeks. Half of the subjects received premedications which included low dose corticosteroids (4 mg of dexamethasone, PO) and low-dose H1 antagonists (50 mg diphenhydramine.
(§2) Subjects were stratified/classified into subgroups based on pre-infusion ABA levels. ABA cutoff levels were selected based on prior studies and are only exemplary. Classification may include only 2 subgroups based on an IgG ABA cutoff level of 15 μg/ml, 20 μg/ml, 25, μg/ml, 30 μg/ml, 35 μg/ml, 40 μg/ml, 45 μg/ml or 50 μg/ml. Classification may also include 3, 4, 5 or more subgroups with each subgroup corresponding to a specific IgG ABA level range. For example, a 3 subgroup classification may include a Low-ABA subgroup encompassing ABA level ranges of <15 μg/ml, <20 μg/ml, <25 μg/ml or <30 μg/ml, a Mid-ABA subgroup encompassing a range having a low end ABA level of 20 μg/ml, 25 μg/ml, 30 μg/ml, 35 μg/ml, 40 μg/ml or 45 μg/ml and a high end ABA level of 30 μg/ml, 35 μg/ml, 40 μg/ml, 45 μg/ml, 50 μg/ml or 55 μg/ml, and a High-ABA subgroup encompassing ABA level ranges of >35 μg/ml, >40 μg/ml, >45 μg/ml, >50 μg/ml, >55 μg/ml, >60 μg/ml, >65 μg/ml or >70 μg/ml. As discussed in International Published Application No. WO2015084732A1, various ABA cutoff levels may be used for reasons such as differences in soluble β-glucan immunotherapy treatments and preferences regarding inclusiveness and exclusiveness of subgroups. […] Serum and cellular IPD markers were analyzed pre-infusion, 15 minutes, 30 minutes and 1 hour post-infusion, end of infusion (EOI) and 1 hour, 2 hours, 3 hours, 4 hours, 24 hours, 48 hours and 168 hours after EOI.
Total CIC formation was measured in serum by ELISA (Quidel).

[2] = system: IL-8, MCP-1, MIP-1β; assay: Cytokine and chemokine serum levels (multiplex, Luminex) after IV PGG; format: in vivo, human
Method: as §1
as §2, with “μg/ml.” for “μg/ml. As discussed in International Published Application No. WO2015084732A1, various ABA cutoff levels may be used for reasons such as differences in soluble β-glucan immunotherapy treatments and preferences regarding inclusiveness and exclusiveness of subgroups.”
Cytokine and chemokine serum levels were measured using Novex magnetic multiplex assay (Life Technologies) the Luminex XMAP technology. […]
The effect of premedications on IPD responses was also evaluated. […]

[3] = system: neutrophils, monocytes, B cells and subsets of dendritic cells (DC); assay: In vivo immune cell binding by flow cytometry from whole blood at EOI; design: species or system human; conditions: High-ABA subjects, anti-PGG MAb staining
Method: In vivo immune cell binding was assessed by flow cytometry from whole blood of subjects dosed with PGG at the EOI. Gates were set based on BFDPV staining (anti-PGG MAb) on blood cells prior to infusion.

[4] = system: intermediate monocytes; switched memory B cells and plasmablasts; assay: Flow cytometry of PBMC for monocyte populations, activation markers and B cells; format: in vivo, human
Method: Here, PBMC were stained with indicating markers and analyzed by flow cytometry. Each of the populations were assessed for expression of activation markers CD86, ICAM-1, HLA-DR and PD-L1 24 hours after infusion. In addition, approximately one week post-infusion, increased switched memory B cells and plasmablasts were detected (data not shown).

[5] = system: anti-β-glucan antibody (ABA IgG, ABA IgM); assay: Example 1: IgG and IgM ABA levels in a cancer subject on IVIG, IMPRIME PGG and pembrolizumab; format: in vivo, human; conditions: same subject and regimen
Method: Soluble β-glucan immunotherapy was administered to a subject diagnosed with glucaganoma. The subject's ABA level prior to immunotherapy treatment placed them in the Low-ABA subgroup, and therefore, their ABA level was boosted by administration of IVIG. GAMMAGARD at 100 mg/ml was intravenously administered prior to each treatment, which provided 161 μg ABA/ml. […] Each cycle was 3 weeks.

## β(1,6)-[poly-(1,3)-D-glucopyranosyl]-poly-β(1,3)-D-glucopyranose [PGG]
[1]; High-ABA subjects
  increase in CIC: the highest increase in CIC
[1]; Low-ABA subjects
  increase in CIC: little increase in CIC
[1]; Mid-ABA subjects
  increase in CIC: a greater increase in CIC
[2]; Mid-ABA and High-ABA subjects, dexamethasone and diphenhydramine premedication vs none
  PGG-mediated cytokine induction (IL-8) with premedications: dampened
[2]; pre-dose to end of infusion, healthy subjects
  increases in cytokine and chemokine serum levels, especially IL-8 and MCP-1: consistently detected
[2]; two High-ABA subjects, weekly dosing, after week 2 infusion
  acute IPD response in IL-8, MCP-1 and MIP-1 levels: acute IPD response was seen
[3]
  in vivo immune cell binding: bound to neutrophils, monocytes, B cells and subsets of dendritic cells (DC)
[4]; 24 hrs after EOI, High-ABA subjects
  appearance of intermediate monocytes and activation markers: a population of intermediate monocytes expressing higher levels of the activation markers CD86, PD-L1 and HLA-DR was observed
[4]; approximately one week post-infusion, data not shown
  switched memory B cells and plasmablasts: increased
[5]; cycle 1, day 2 EOI IMPRIME
  ABA IgG: 17.9 µg/mL
  ABA IgM: 6.0 µg/mL
[5]; cycle 1, day 3
  ABA IgG: 14.5 µg/mL
  ABA IgM: 8.3 µg/mL
[5]; cycle 1, day 9
  ABA IgG: 10.2 µg/mL
  ABA IgM: 10.1 µg/mL
[5]; cycle 2, day 1 EOI-IMPRIME
  ABA IgG: 50.4 µg/mL
  ABA IgM: 11.7 µg/mL
[5]; cycle 2, day 1 pre-IVIG
  ABA IgG: 22.3 µg/mL
  ABA IgM: 18.5 µg/mL
[5]; cycle 3, day 1 EOI-IMPRIME
  ABA IgG: 57.4 µg/mL
[5]; cycle 3, day 1 pre-IVIG
  ABA IgG: 21.9 µg/mL
